DC50 data for 18 compounds are collected here from US11530222B2, “Substituted pyrrolopyrimidine and pyrazolopyrimidine as Bruton's tyrosine kinase (BTK) degraders” (ACCUTAR BIOTECHNOLOGY INC., priority 2021, dated 2022).

In the experiment the target is T1, BTK (Homo sapiens, UniProt Q06187).
T1 construct: BTK Degradative Activity of Exemplary Compounds of the Present Disclosure in a RAMOS Cell Line; host or cells: RAMOS
The experiment can be described thus: BTK degradative activity in a RAMOS cell line (Western blot). The experiment is classed as cell-based. As to conditions: 6 hours after administration, read-out: RAMOS BTK Degradation DC50. How it is done:
RAMOS (ATCC) cells were plated in 24-well plates at 8×10^5 cells/well in the RPMI growth medium containing 10% heat-inactivated FBS and 1× Penicillin Streptomycin, and then incubated at 37° C. overnight. The following day, the test compound was administered to the cells by using 1000× compound stock solution prepared in DMSO at various concentrations. After administration of the compound, the cells were then incubated at 37° C. for 6 hours.
Upon completion, the cells were collected by centrifugation and lysed in Laemmli sample buffer (1×; VWR International). Proteins in cell lysate were separated by SDS-PAGE and transferred to Odyssey nitrocellulose membranes (Licor) with Iblot® dry blotting transfer system (ThermoFisher). Nonspecific binding was blocked by incubating membranes with Intercept Blocking Buffer (Licor) for 1 hour at room temperature with gentle shaking. The membranes were then incubated overnight at 4° C. with primary antibodies anti-BTK (Cell signaling, cat. #8547) and anti-GAPDH (Cell signaling, cat. #5179) diluted in Intercept Blocking Buffer containing 0.1% Tween 20. After washing 3 times with TBS-T, the membranes were incubated with IRDye® 800CW goat anti-mouse IgG (1:20,000, Licor) or IRDye® 800CW goat anti-rabbit IgG (1:20,000, Licor) for 1 hour. After TBS-T washes, membranes were rinsed in TBS and scanned on Odyssey® CLx Imaging System (Licor). The bands were quantified using Image Studio™ Software (Licor).
Table 3 summarizes the BTK degradative activity of exemplary compounds of the present disclosure in a RAMOS cell line 6 hours after administration. The DC50 values (i.e., the concentration of test compound at which 50% of the target protein is degraded) were calculated. A designation of “A” corresponds to a DC50 value less than 10 nM. A designation of “B” corresponds to a DC50 value greater than or equal to 10 nM and less than 100 nM. A designation of “C” corresponds to a DC50 value greater than or equal to 100 nM.
A general note: A western blot detects proteins with antibodies after separation by electrophoresis.

Each structure is given as a SMILES string. Bounds are passed on as bounds.

T1 sequence (Q06187 whole entry): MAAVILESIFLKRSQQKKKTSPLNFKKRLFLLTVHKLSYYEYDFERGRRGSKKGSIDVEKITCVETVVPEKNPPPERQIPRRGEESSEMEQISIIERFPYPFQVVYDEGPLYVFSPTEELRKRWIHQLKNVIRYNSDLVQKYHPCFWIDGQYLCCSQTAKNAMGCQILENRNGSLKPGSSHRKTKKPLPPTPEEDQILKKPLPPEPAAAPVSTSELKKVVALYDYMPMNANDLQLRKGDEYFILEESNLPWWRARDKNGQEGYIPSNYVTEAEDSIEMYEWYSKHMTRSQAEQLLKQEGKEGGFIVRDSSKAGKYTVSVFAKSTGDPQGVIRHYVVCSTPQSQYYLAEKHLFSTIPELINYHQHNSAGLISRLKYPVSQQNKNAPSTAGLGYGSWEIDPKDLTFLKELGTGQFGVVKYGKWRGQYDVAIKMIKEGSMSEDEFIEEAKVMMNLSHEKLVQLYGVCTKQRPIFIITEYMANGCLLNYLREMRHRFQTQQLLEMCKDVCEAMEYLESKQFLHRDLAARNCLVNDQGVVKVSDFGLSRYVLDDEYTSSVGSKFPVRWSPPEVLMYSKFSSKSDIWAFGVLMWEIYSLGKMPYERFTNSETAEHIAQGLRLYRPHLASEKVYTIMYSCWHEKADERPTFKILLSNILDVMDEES

The DC50 is the midpoint of the concentration-degradation curve. For `O=C1CCC(N2C(=O)c3ccc(N4CCN(CCCCCCN5CCC(Nc6ncnc7[nH]cc(C(=O)c8ccc(Oc9ccccc9)cc8Cl)c67)CC5)CC4)cc3C2=O)C(=O)N1` (stereo not drawn) [Compound 18, 5-(4-(6-(4-((5-(2-chloro-4-phenoxybenzoyl)-7H-pyrrolo[2,3-d]pyrimidin-4-yl)amino)piperidin-1-yl)hexyl)piperazin-1-yl)-2-(2,6-dioxopiperidin-3-yl)isoindoline-1,3-dione], the DC50 was not below 100 nM.
Next, `O=C1CCC(N2C(=O)c3ccc(N4CCN(CCCC(=O)N5CCC[C@@H](Nc6ncnc7[nH]cc(C(=O)c8ccc(Oc9ccccc9)cc8Cl)c67)C5)CC4)cc3C2=O)C(=O)N1` (stereo partly drawn) [Compound 19, 5-(4-(4-((R)-3-((5-(2-chloro-4-phenoxybenzoyl)-7H-pyrrolo[2,3-d]pyrimidin-4-yl)amino)piperidin-1-yl)-4-oxobutyl)piperazin-1-yl)-2-(2,6-dioxopiperidin-3-yl)isoindoline-1,3-dione]: 10 to 100 nM.
The value for `O=C1CC[C@H](N2Cc3cc(N4CCN(CCCC(=O)N5CCC[C@@H](Nc6ncnc7[nH]cc(C(=O)c8ccc(Oc9ccccc9)cc8Cl)c67)C5)CC4)ccc3C2=O)C(=O)N1` [Compound 20, (S)-3-(5-(4-(4-((R)-3-((5-(2-chloro-4-phenoxybenzoyl)-7H-pyrrolo[2,3-d]pyrimidin-4-yl)amino)piperidin-1-yl)-4-oxobutyl)piperazin-1-yl)-1-oxoisoindolin-2-yl)piperidine-2,6-dione] was 10 to 100 nM; that for `O=C1CC[C@H](N2Cc3cc(N4CCN(CCCCCCC(=O)N5CCC(Nc6ncnc7[nH]cc(C(=O)c8ccc(Oc9ccccc9)cc8Cl)c67)CC5)CC4)ccc3C2=O)C(=O)N1` [Compound 21, (S)-3-(5-(4-(7-(4-((5-(2-chloro-4-phenoxybenzoyl)-7H-pyrrolo[2,3-d]pyrimidin-4-yl)amino)piperidin-1-yl)-7-oxoheptyl)piperazin-1-yl)-1-oxoisoindolin-2-yl)piperidine-2,6-dione] was 10 to 100 nM; that for `O=C1CC[C@H](N2C(=O)c3ccc(N4CCN(CCCCCCC(=O)N5CCC(Nc6ncnc7[nH]cc(C(=O)c8ccc(Oc9ccccc9)cc8Cl)c67)CC5)CC4)cc3C2=O)C(=O)N1` [Compound 22, 5-(4-(7-(4-((5-(2-chloro-4-phenoxybenzoyl)-7H-pyrrolo[2,3-d]pyrimidin-4-yl)amino)piperidin-1-yl)-7-oxoheptyl)piperazin-1-yl)-2-(2,6-dioxopiperidin-3-yl)isoindoline-1,3-dione] was 10 to 100 nM.
As for `O=C1CCC(N2C(=O)c3ccc(N4CCN(CCCC(=O)N5CCC(Nc6ncnc7[nH]cc(C(=O)c8ccc(Oc9ccccc9)cc8Cl)c67)CC5)CC4)cc3C2=O)C(=O)N1` (stereo not drawn) [Compound 23, 5-(4-(4-(4-((5-(2-chloro-4-phenoxybenzoyl)-7H-pyrrolo[2,3-d]pyrimidin-4-yl)amino)piperidin-1-yl)-4-oxobutyl)piperazin-1-yl)-2-(2,6-dioxopiperidin-3-yl)isoindoline-1,3-dione], the DC50 lay in the range of 10 to 100 nM.
With `O=C1CC[C@H](N2Cc3cc(N4CCN(CCCC(=O)N5CCC(Nc6ncnc7[nH]cc(C(=O)c8ccc(Oc9ccccc9)cc8Cl)c67)CC5)CC4)ccc3C2=O)C(=O)N1` [Compound 24, (S)-3-(5-(4-(4-(4-((5-(2-chloro-4-phenoxybenzoyl)-7H-pyrrolo[2,3-d]pyrimidin-4-yl)amino)piperidin-1-yl)-4-oxobutyl)piperazin-1-yl)-1-oxoisoindolin-2-yl)piperidine-2,6-dione], the DC50 lay within 10 to 100 nM.
With `O=C1CC[C@H](N2Cc3cc(N4CCN(CCCCC(=O)N5CCC(Nc6ncnc7[nH]cc(C(=O)c8ccc(Oc9ccccc9)cc8Cl)c67)CC5)CC4)ccc3C2=O)C(=O)N1` [Compound 25, (S)-3-(5-(4-(5-(4-((5-(2-chloro-4-phenoxybenzoyl)-7H-pyrrolo[2,3-d]pyrimidin-4-yl)amino)piperidin-1-yl)-5-oxopentyl)piperazin-1-yl)-1-oxoisoindolin-2-yl)piperidine-2,6-dione], the DC50 was less than 10 nM.
Next, `O=C1CCC(N2C(=O)c3ccc(N4CCN(CCCN5CCC(Nc6ncnc7[nH]cc(C(=O)c8ccc(Oc9ccccc9)cc8Cl)c67)CC5)CC4)cc3C2=O)C(=O)N1` (stereo not drawn) [Compound 26, 5-(4-(3-(4-((5-(2-chloro-4-phenoxybenzoyl)-7H-pyrrolo[2,3-d]pyrimidin-4-yl)amino)piperidin-1-yl)propyl)piperazin-1-yl)-2-(2,6-dioxopiperidin-3-yl)isoindoline-1,3-dione]: 10 to 100 nM; `O=C1CCC(N2C(=O)c3ccc(N4CCN(CCCCN5CCC(Nc6ncnc7[nH]cc(C(=O)c8ccc(Oc9ccccc9)cc8Cl)c67)CC5)CC4)cc3C2=O)C(=O)N1` (stereo not drawn) [Compound 27, 5-(4-(4-(4-((5-(2-chloro-4-phenoxybenzoyl)-7H-pyrrolo[2,3-d]pyrimidin-4-yl)amino)piperidin-1-yl)butyl)piperazin-1-yl)-2-(2,6-dioxopiperidin-3-yl)isoindoline-1,3-dione]: 10 to 100 nM; `O=C1CCC(N2C(=O)c3ccc(N4CCN(CCCCCC(=O)N5CCC(Nc6ncnc7[nH]cc(C(=O)c8ccc(Oc9ccccc9)cc8Cl)c67)CC5)CC4)cc3C2=O)C(=O)N1` (stereo not drawn) [Compound 28, 5-(4-(6-(4-((5-(2-chloro-4-phenoxybenzoyl)-7H-pyrrolo[2,3-d]pyrimidin-4-yl)amino)piperidin-1-yl)-6-oxohexyl)piperazin-1-yl)-2-(2,6-dioxopiperidin-3-yl)isoindoline-1,3-dione]: 10 to 100 nM.
The value for `O=C1CCC(N2C(=O)c3ccc(N4CCN(CCCCCCCN5CCC[C@@H](Nc6ncnc7[nH]cc(C(=O)c8ccc(Oc9ccccc9)cc8Cl)c67)C5)CC4)cc3C2=O)C(=O)N1` (stereo partly drawn) [Compound 29, 5-(4-(7-((R)-3-((5-(2-chloro-4-phenoxybenzoyl)-7H-pyrrolo[2,3-d]pyrimidin-4-yl)amino)piperidin-1-yl)heptyl)piperazin-1-yl)-2-(2,6-dioxopiperidin-3-yl)isoindoline-1,3-dione] was 10 to 100 nM; that for `O=C1CCC(N2C(=O)c3ccc(N4CCN(CCCCCN5CCC[C@@H](Nc6ncnc7[nH]cc(C(=O)c8ccc(Oc9ccccc9)cc8Cl)c67)C5)CC4)cc3C2=O)C(=O)N1` (stereo partly drawn) [Compound 30, 5-(4-(5-((R)-3-((5-(2-chloro-4-phenoxybenzoyl)-7H-pyrrolo[2,3-d]pyrimidin-4-yl)amino)piperidin-1-yl)pentyl)piperazin-1-yl)-2-(2,6-dioxopiperidin-3-yl)isoindoline-1,3-dione] was not below 100 nM.
For the compound `O=C1CCC(N2C(=O)c3ccc(N4CCN(CCCCC(=O)N5CCC(Nc6ncnc7[nH]cc(C(=O)c8ccc(Oc9ccccc9)cc8Cl)c67)CC5)CC4)cc3C2=O)C(=O)N1` (stereo not drawn) [Compound 31, 5-(4-(5-(4-((5-(2-chloro-4-phenoxybenzoyl)-7H-pyrrolo[2,3-d]pyrimidin-4-yl)amino)piperidin-1-yl)-5-oxopentyl)piperazin-1-yl)-2-(2,6-dioxopiperidin-3-yl)isoindoline-1,3-dione], the DC50 lay in the range of 10 to 100 nM.
With `O=C1CC[C@H](N2Cc3cc(N4CCN(CC5CCN(C(=O)N6CCC[C@@H](Nc7ncnc8[nH]cc(C(=O)c9ccc(Oc%10ccccc%10)cc9Cl)c78)C6)CC5)CC4)ccc3C2=O)C(=O)N1` [Compound 32, (S)-3-(5-(4-((1-((R)-3-((5-(2-chloro-4-phenoxybenzoyl)-7H-pyrrolo[2,3-d]pyrimidin-4-yl)amino)piperidine-1-carbonyl)piperidin-4-yl)methyl)piperazin-1-yl)-1-oxoisoindolin-2-yl)piperidine-2,6-dione], the DC50 was 10 to 100 nM.
Next, `O=C1CC[C@H](N2C(=O)c3ccc(N4CCN(CC5CCN(C(=O)N6CCC[C@@H](Nc7ncnc8[nH]cc(C(=O)c9ccc(Oc%10ccccc%10)cc9Cl)c78)C6)CC5)CC4)cc3C2=O)C(=O)N1` [Compound 33, 5-(4-((1-((R)-3-((5-(2-chloro-4-phenoxybenzoyl)-7H-pyrrolo[2,3-d]pyrimidin-4-yl)amino)piperidine-1-carbonyl)piperidin-4-yl)methyl)piperazin-1-yl)-2-((S)-2,6-dioxopiperidin-3-yl)isoindoline-1,3-dione]: 10 to 100 nM; `O=C1CCC(N2C(=O)c3ccc(N4CCN(CCCCCN5CCC(Nc6ncnc7[nH]cc(C(=O)c8ccc(Oc9ccccc9)cc8Cl)c67)CC5)CC4)cc3C2=O)C(=O)N1` (stereo not drawn) [Compound 34, 5-(4-(5-(4-((5-(2-chloro-4-phenoxybenzoyl)-7H-pyrrolo[2,3-d]pyrimidin-4-yl)amino)piperidin-1-yl)pentyl)piperazin-1-yl)-2-(2,6-dioxopiperidin-3-yl)isoindoline-1,3-dione]: less than 10 nM; `O=C1CCC(N2C(=O)c3cccc(C#CCCCCCCC(=O)N4CCC(Nc5ncnc6[nH]cc(C(=O)c7ccc(Oc8ccccc8)cc7Cl)c56)CC4)c3C2=O)C(=O)N1` (stereo not drawn) [Compound 35, 4-(9-(4-((5-(2-chloro-4-phenoxybenzoyl)-7H-pyrrolo[2,3-d]pyrimidin-4-yl)amino)piperidin-1-yl)-9-oxonon-1-yn-1-yl)-2-(2,6-dioxopiperidin-3-yl)isoindoline-1,3-dione]: not below 100 nM.
